Source: US20200017495A1, “NOVEL HETEROCYCLIC COMPOUNDS AND THEIR USE IN PREVENTING OR TREATING BACTERIAL INFECTIONS” (priority 2017, published 2020)
Read-outs that look alike come from different tables or passages of the source.

Columns and labels:
Test in all cases: MIC of compounds alone and combined with antibacterials, broth microdilution (CLSI)
Type in all cases: cell-based
[1] = tested on: Klebsiella pneumoniae (KPN) isolates
In short: (§1)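 Log-phase isolates were inoculated at a final 5.10^5 CFU/mL in cation-adjusted Mueller-Hinton broth and incubated 16-20 h at 35° C in ambient air. MIC was the lowest concentration preventing visible growth; for combinations, the antibacterial MIC was read at each compound concentration.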

[2] = tested on: Citrobacter freundii (CFR) isolates
In short: as §1

[3] = tested on: Morganella morganii (MMO) isolates
In short: as §1

CC1(C)S[C@@H]2[C@H](NC(=O)[C@H](N)c3ccc(O)cc3)C(=O)N2[C@H]1C(=O)O [AMX, Amoxicillin]
MIC ([1]; strain KPN UFR65, genotype TEM-1, SHV-11, KPC-2): >256 µg/mL | MIC ([1]; strain KPN UFR66, genotype TEM-1, SHV-11, CTX-M-15, KPC-2): >256 µg/mL | MIC ([1]; strain KPN UFR67, genotype TEM-1, SHV-11, KPC-3): >256 µg/mL | MIC ([1]; strain KPN UFR68, genotype TEM-1, SHV-11, CTX-M-15, KPC-3): >1024 µg/mL | MIC ([1]; strain KPN UFR76, genotype TEM-155, SHV-11, ACT-1, OXA-2): >256 µg/mL | MIC ([1]; strain KPN UFR77, genotype CMY-2): >256 µg/mL | MIC ([1]; strain KPN UFR78, genotype TEM-1, SHV-1, CTX-M-15, CMY-2, OXA-1, OXA-48): >256 µg/mL | MIC ([1]; strain KPN UFR79, genotype DHA-1, OXA-1): >256 µg/mL | MIC ([1]; strain KPN UFR80, genotype SHV-11, DHA-1, OXA-1): >256 µg/mL | MIC ([1]; strain KPN UFR81, genotype TEM-1, SHV-1, DHA-1, OXA-48): >256 µg/mL | MIC ([1]; strain KPN UFR162, genotype SHV-28, TEM-1, CTX-M-15, OXA-181, OXA-181, NDM-1, antibiotic alone): >128 µg/mL | MIC ([1]; strain KPN UFR163, genotype TEM-1, SHV-1, CTX-M-15, OXA-232, OXA-9, NDM-1, qnrB1, qepA, RmtB, antibiotic alone): >128 µg/mL | MIC ([1]; strain KPN UFR164, genotype SHV-11, CTX-M-15, OXA-1, OXA-181, NDM-1, antibiotic alone): >128 µg/mL | MIC ([1]; strain KPN UFR165, genotype TEM-1, SHV-11, CTX-M-15, OXA-1, OXA-181, NDM-1, antibiotic alone): >128 µg/mL | MIC ([1]; strain KPN UFR166, genotype TEM-1, TEM-1, CTX-M-15, OXA-181, OXA-9, NDM-1, antibiotic alone): >128 µg/mL | MIC ([1]; strain KPN UFR167, genotype TEM-1, SHV-12, CTX-M-15, OXA-9, NDM-1, antibiotic alone): >128 µg/mL | MIC ([1]; strain KPN UFR168, genotype SHV-2, CTX-M-15, OXA-1, OXA-181, NDM-1, ArmA, antibiotic alone): >128 µg/mL | MIC ([1]; strain KPN UFR169, genotype TEM-1, SHV-28, CTX-M-15, CMY-4, OXA-1, NDM-1, antibiotic alone): >128 µg/mL | MIC ([1]; strain KPN UFR170, genotype TEM-1, SHV-28, CTX-M-15, CMY-6, OXA-1, OXA-9, NDM-1, antibiotic alone): >128 µg/mL | MIC ([1]; strain KPN UFR171, genotype TEM-1, SHV-28, CTX-M-15, OXA-1, OXA-10, NDM-1, RmtA, antibiotic alone): >128 µg/mL | MIC ([1]; strain KPN UFR172, genotype SHV-38, CMY-16, OXA-10, NDM-1, antibiotic alone): >128 µg/mL | MIC ([1]; strain KPN UFR215, genotype SHV-27, CTX-M-15): >128 µg/mL | MIC ([1]; strain KPN UFR216, genotype SHV-28, CTX-M-15): >128 µg/mL | MIC ([1]; strain KPN UFR217, genotype TEM-1, SHV-1, CTX-M-15): >128 µg/mL | MIC ([1]; strain KPN UFR219, genotype SHV-12, CTX-M-15): >128 µg/mL | MIC ([1]; strain KPN UFR220, genotype TEM-1, SHV-12, DHA-1): >128 µg/mL | MIC ([1]; strain KPN UFR221, genotype TEM-1, SHV-11, CTX-M-14, DHA-1): >128 µg/mL | MIC ([1]; strain KPN UFR229O, genotype SHV-12, VIM-1, antibiotic alone): >128 µg/mL | MIC ATB in combination ([2]; CFR UFR10, AF2 @ 8 μg/mL): 1 µg/mL | MIC ATB in combination ([2]; CFR UFR10, CLA @ 4 μg/mL): >128 µg/mL | MIC ATB in combination ([2]; CFR UFR11, AF2 @ 8 μg/mL): >128 µg/mL | MIC ATB in combination ([2]; CFR UFR11, CLA @ 4 μg/mL): >128 µg/mL | MIC ATB in combination ([2]; CFR UFR37, AF2 @ 8 μg/mL): <0.25 µg/mL | MIC ATB in combination ([2]; CFR UFR37, CLA @ 4 μg/mL): >128 µg/mL | MIC ATB in combination ([2]; CFR UFR83, AF2 @ 8 μg/mL): >128 µg/mL | MIC ATB in combination ([2]; CFR UFR83, CLA @ 4 μg/mL): >128 µg/mL | MIC ATB in combination ([2]; CFR UFR146, CLA @ 4 μg/mL): >128 µg/mL | MIC ATB in combination ([2]; CFR UFR248, CLA @ 4 μg/mL): >128 µg/mL | MIC ATB in combination ([2]; CFR UFR249, CLA @ 4 μg/mL): >128 µg/mL | MIC ATB in combination ([2]; CFR UFR250, CLA @ 4 μg/mL): 128 µg/mL | MIC ([2]; strain CFR UFR10, genotype OXA-48): >256 µg/mL | MIC ([2]; strain CFR UFR11, genotype TEM-1, OXA-1, OXA-48): >256 µg/mL | MIC ([2]; strain CFR UFR37, genotype TEM-1, CTX-M-15, NDM-1): >256 µg/mL | MIC ([2]; strain CFR UFR83, genotype TEM-3, AmpC): >256 µg/mL | MIC ([2]; strain CFR UFR146, genotype TEM-1, KPC-2): >128 µg/mL | MIC ([2]; strain CFR UFR147, genotype TEM-1, CTX-M-15, OXA-1, OXA-181, OXA-10, OXA-9, NDM-1, ArmA, dfrA12, aadA2, antibiotic alone): >128 µg/mL | MIC ATB in combination ([2]; strain CFR UFR147, with CLA @ 4 μg/mL): >128 µg/mL | MIC ([2]; strain CFR UFR148, genotype TEM-1, TEM-2, CTX-M-15, NDM-1, antibiotic alone): >128 µg/mL | MIC ATB in combination ([2]; strain CFR UFR148, with CLA @ 4 μg/mL): >128 µg/mL | MIC ([2]; strain CFR UFR248, genotype CTX-M-15): >128 µg/mL | MIC ([2]; strain CFR UFR249, genotype TEM-1, CTX-M-15): >128 µg/mL | MIC ([2]; strain CFR UFR250, genotype TEM-1, SHV-28, CTX-M-15): >128 µg/mL | MIC ([2]; strain CFR UFR251, genotype SHV-11, VIM-1, antibiotic alone): >128 µg/mL | MIC ATB in combination ([2]; strain CFR UFR251, with CLA @ 4 μg/mL): >128 µg/mL | MIC ([2]; strain CFR UFR252, genotype VIM-2, antibiotic alone): >128 µg/mL | MIC ATB in combination ([2]; strain CFR UFR252, with CLA @ 4 μg/mL): >128 µg/mL | MIC ([2]; strain CFR UFR253, genotype TEM-1, SHV-12, OXA-48): >128 µg/mL | MIC ATB in combination ([2]; strain CFR UFR253, with CLA @ 4 μg/mL): >128 µg/mL | MIC ([2]; strain CFR UFR254, genotype VEB-1b, OXA-48, qnrA): >128 µg/mL | MIC ATB in combination ([2]; strain CFR UFR254, with CLA @ 4 μg/mL): >128 µg/mL | MIC [3]: >128 µg/mL | MIC ATB in combination [3]: >128 µg/mL | MIC ([3]; strain MMO 200321, genotype TEM-1, CTX-M-15, OXA-1): >256 µg/mL | MIC ([3]; strain MMO UFR144, genotype TEM-1, CTX-M-15): >128 µg/mL | MIC ([3]; strain MMO UFR240, genotype CTX-M-9): >128 µg/mL | MIC ([3]; strain MMO UFR241, genotype TEM-1, CTX-M-15): >128 µg/mL | MIC ([3]; strain MMO UFR242, genotype TEM-52): >128 µg/mL
